Results published in patent publication US6355799B1, “Substituted benzene compounds, process for their preparation, and herbicidal and defoliant compositions containing them” (ISK Americas Incorporated, priority 1997, dated 2002).

Columns and labels:
Format in all cases: in vivo
[1] = system: redroot pigweed (Amaranthus retroflexus, AMARE); test: Pre-emerge test, greenhouse herbicide activity screening; conditions: pre-emerge, 14 days after application, rating scale 0-100
How it was run: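 Rating: 0–100 visual injury, 14 DAA. Application: acetone, 187 l/ha, 15–1000 g ai/ha, flat-fan track sprayer with nozzle 40–45 cm above soil or canopy. Post-emerge runs used 0.25% v/v surfactant on 2–3 leaf plants.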

[2] = system: barnyardgrass (Echinochloa crus-galli, ECHCG); test: as above; conditions: pre-emerge, 14 days after application, rating scale 0-100
How it was run: (§1)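 Plants grown in 10 cm pots of sandy loam mix received acetone-dissolved compounds through a moving flat-fan nozzle. Doses ranged from 15 to 1000 g ai/ha. Pre-emerge pots were seeded one day earlier, post-emerge pots 8–21 days earlier. Fourteen days on, each pot was graded 0–100 for damage.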

[3] = system: green foxtail (Setaria viridis, SETVI); test: as above; conditions: pre-emerge, 14 days after application, rating scale 0-100
How it was run: as §1

[4] = system: ivyleaf morningglory (Ipomoea hederacea, IPOHE); test: as above; conditions: pre-emerge, 14 days after application, rating scale 0-100
How it was run: as §1

[5] = system: johnsongrass (Sorghum halepense, SORHA); test: as above; conditions: pre-emerge, 14 days after application, rating scale 0-100
How it was run: as §1

[6] = system: lambsquarters (Chenopodium album, CHEAL); test: as above; conditions: pre-emerge, 14 days after application, rating scale 0-100
How it was run: as §1

[7] = system: large crabgrass (Digitaria sanguinalis, DIGSA); test: as above; conditions: pre-emerge, 14 days after application, rating scale 0-100
How it was run: as §1

[8] = system: sicklepod (Cassia obtusifolia, CASOB); test: as above; conditions: pre-emerge, 14 days after application, rating scale 0-100
How it was run: as §1

[9] = system: velvetleaf (Abutilon theophrasti, ABUTH); test: as above; conditions: pre-emerge, 14 days after application, rating scale 0-100
How it was run: as §1

[10] = system: field corn (Zea mays L., var. Dekalb 535, CORN); test: Pre-emerge test, crop safety; conditions: pre-emerge, 14 days after application, rating scale 0-100
How it was run: as §1

[11] = system: upland rice (Oryza sp., var. Tebonnet, RICE); test: Pre-emerge test, crop safety; conditions: pre-emerge, 14 days after application, rating scale 0-100
How it was run: as §1

[12] = system: barnyardgrass (Echinochloa crus-galli, ECHCG); test: Post-emerge test, greenhouse herbicide activity screening; conditions: post-emerge, 14 days after application, rating scale 0-100
How it was run: (§2)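 Fourteen days after spraying, crop and weed injury was graded visually from 0, no effect, to 100, every plant dead. Test substances were dissolved in acetone and applied at 15–1000 g ai/ha with a flat-fan nozzle. Application was either pre-emergence, one day after sowing, or post-emergence at the 2–3 leaf stage.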

[13] = system: green foxtail (Setaria viridis, SETVI); test: as above; conditions: post-emerge, 14 days after application, rating scale 0-100
How it was run: as §2

[14] = system: ivyleaf morningglory (Ipomoea hederacea, IPOHE); test: as above; conditions: post-emerge, 14 days after application, rating scale 0-100
How it was run: as §2

[15] = system: johnsongrass (Sorghum halepense, SORHA); test: as above; conditions: post-emerge, 14 days after application, rating scale 0-100
How it was run: as §2

[16] = system: lambsquarters (Chenopodium album, CHEAL); test: as above; conditions: post-emerge, 14 days after application, rating scale 0-100
How it was run: as §2

[17] = system: large crabgrass (Digitaria sanguinalis, DIGSA); test: as above; conditions: post-emerge, 14 days after application, rating scale 0-100
How it was run: as §2

[18] = system: redroot pigweed (Amaranthus retroflexus, AMARE); test: as above; conditions: post-emerge, 14 days after application
How it was run: as §2

[19] = system: sicklepod (Cassia obtusifolia, CASOB); test: as above; conditions: post-emerge, 14 days after application, rating scale 0-100
How it was run: as §2

[20] = system: velvetleaf (Abutilon theophrasti, ABUTH); test: as above; conditions: post-emerge, 14 days after application, rating scale 0-100
How it was run: as §2

[21] = system: field corn (Zea mays L., var. Dekalb 535, CORN); test: Post-emerge test, crop safety; conditions: post-emerge, 14 days after application, rating scale 0-100
How it was run: (§3)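 Each test used a mechanized track sprayer delivering 187 l/ha of acetone solution at 15–1000 g ai/ha. Post-emerge foliage at 2–3 leaves was treated with added 0.25% v/v non-ionic surfactant and bottom-watered only. Injury was assessed on day 14, where 100 means total kill.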

[22] = system: upland rice (Oryza sp., var. Tebonnet, RICE); test: Post-emerge test, crop safety; conditions: post-emerge, 14 days after application, rating scale 0-100
How it was run: as §3

COc1c(Cl)cc(F)c(-n2c(=O)cc(C(F)(F)F)n(C)c2=O)c1NN=CCCSC [15-14]
phytotoxicity rating AMARE ([1]; 63 g ai/ha): 100
phytotoxicity rating AMARE ([1]; 250 g ai/ha): 100
phytotoxicity rating ECHCG ([2]; 63 g ai/ha): 100
phytotoxicity rating ECHCG ([2]; 250 g ai/ha): 100
phytotoxicity rating SETVI ([3]; 63 g ai/ha): 100
phytotoxicity rating SETVI ([3]; 250 g ai/ha): 100
phytotoxicity rating IPOHE ([4]; 63 g ai/ha): 100
phytotoxicity rating IPOHE ([4]; 250 g ai/ha): 100
phytotoxicity rating SORHA ([5]; 63 g ai/ha): 100
phytotoxicity rating SORHA ([5]; 250 g ai/ha): 100
phytotoxicity rating CHEAL ([6]; 63 g ai/ha): 100
phytotoxicity rating CHEAL ([6]; 250 g ai/ha): 100
phytotoxicity rating DIGSA ([7]; 63 g ai/ha): 100
phytotoxicity rating DIGSA ([7]; 250 g ai/ha): 100
phytotoxicity rating CASOB ([8]; 63 g ai/ha): 90
phytotoxicity rating CASOB ([8]; 250 g ai/ha): 100
phytotoxicity rating ABUTH ([9]; 63 g ai/ha): 100
phytotoxicity rating ABUTH ([9]; 250 g ai/ha): 100
phytotoxicity rating CORN ([10]; 63 g ai/ha): 40
phytotoxicity rating CORN ([10]; 250 g ai/ha): 99
phytotoxicity rating RICE ([11]; 63 g ai/ha): 99
phytotoxicity rating RICE ([11]; 250 g ai/ha): 100
Post-emerge Herbicidal Activity ECHCG (phytotoxicity rating) ([12]; 63 g ai/ha): 20
Post-emerge Herbicidal Activity ECHCG (phytotoxicity rating) ([12]; 250 g ai/ha): 90
Post-emerge Herbicidal Activity SETVI (phytotoxicity rating) ([13]; 63 g ai/ha): 20
Post-emerge Herbicidal Activity SETVI (phytotoxicity rating) ([13]; 250 g ai/ha): 55
Post-emerge Herbicidal Activity IPOHE (phytotoxicity rating) ([14]; 63 g ai/ha): 100
Post-emerge Herbicidal Activity IPOHE (phytotoxicity rating) ([14]; 250 g ai/ha): 100
Post-emerge Herbicidal Activity SORHA (phytotoxicity rating) ([15]; 63 g ai/ha): 20
Post-emerge Herbicidal Activity SORHA (phytotoxicity rating) ([15]; 250 g ai/ha): 70
Post-emerge Herbicidal Activity CHEAL (phytotoxicity rating) ([16]; 63 g ai/ha): 100
Post-emerge Herbicidal Activity CHEAL (phytotoxicity rating) ([16]; 250 g ai/ha): 100
Post-emerge Herbicidal Activity DIGSA (phytotoxicity rating) ([17]; 63 g ai/ha): 20
Post-emerge Herbicidal Activity DIGSA (phytotoxicity rating) ([17]; 250 g ai/ha): 60
Post-emerge Herbicidal Activity AMARE (phytotoxicity rating) ([18]; 63 g ai/ha, rating scale 0-100 (0 no damage, 100 complete death)): 100
Post-emerge Herbicidal Activity AMARE (phytotoxicity rating) ([18]; 250 g ai/ha, rating scale 0-100): 100
Post-emerge Herbicidal Activity CASOB (phytotoxicity rating) ([19]; 63 g ai/ha): 80
Post-emerge Herbicidal Activity CASOB (phytotoxicity rating) ([19]; 250 g ai/ha): 100
Post-emerge Herbicidal Activity ABUTH (phytotoxicity rating) ([20]; 63 g ai/ha): 100
Post-emerge Herbicidal Activity ABUTH (phytotoxicity rating) ([20]; 250 g ai/ha): 100
Post-emerge Herbicidal Activity CORN (crop damage rating) ([21]; 63 g ai/ha): 20
Post-emerge Herbicidal Activity CORN (crop damage rating) ([21]; 250 g ai/ha): 65
Post-emerge Herbicidal Activity RICE (crop damage rating) ([22]; 63 g ai/ha): 40
Post-emerge Herbicidal Activity RICE (crop damage rating) ([22]; 250 g ai/ha): 50
